Results: US10238614B2, “Uses of 6-aminohexanoic acid to manage bleeding conditions” (EMORY UNIVERSITY, priority 2013, dated 2019)

Legend:
[1] = tested on: thrombocytopenic patients with hematological malignancies; experiment: Retrospective study of prophylactic oral EACA in outpatients with chronic transfusion-dependent thrombocytopenia; format: in vivo, human
From the text: Patients were managed in the outpatient setting despite their severe thrombocytopenia and received EACA as a substitution for prophylactic, threshold directed platelet transfusion.
Patients with chronic transfusion dependent thrombocytopenia who received prophylactic EACA in the outpatient setting were identified through a computerized database search. After initiation of EACA, prophylactic threshold-driven platelet transfusion was discontinued and patients received only therapeutic platelet transfusion in case of bleeding, except when admitted to the inpatient ward. In the inpatient ward, prophylactic platelets were routinely infused when platelets were <10×10^9/L. The number of platelets transfused in the hospital in the absence of bleeding was censored. Patient demographics, diagnosis, treatment, platelet counts, duration of thrombocytopenia, transfusion history, bleeding and outcomes were captured onto study-specific case report forms. Bleeding was captured regardless of patient's location (out-patient or wards) and retrospectively scored based on the ITP WHO classification: grade 1=petechial bleed, grade 2=clinically mild blood loss, grade 3=gross blood loss requiring transfusion, and grade 4=retinal, cerebral, or debilitating blood loss. Statistics were descriptive.
Patients were monitored in the outpatient clinic, with a CBC obtained at least once a week.

[2] = tested on: patients with thrombocytopenic hemorrhage / severely thrombocytopenic patients with hematological malignancies; conditions: cited from earlier work
[3] = ITP WHO bleeding classification grade, median (range)
[4] = severe and refractory thrombocytopenic patients not receiving prophylactic platelet transfusion

NCCCCCC(=O)O [EACA, 6-aminohexanoic acid]
tolerability ([1]; 1 gram orally twice daily, median 47 days): overall well tolerated | patients who discontinued EACA due to platelet recovery ([1]; 18 of 44 patients): 41% | discontinuation due to intolerance ([1]; 44 patients): no patients discontinued EACA due to intolerance | venous thromboembolic event ([1]; 44 patients): No patient experienced a venous thromboembolic event | patients who received platelet transfusions while on EACA ([1]; 44 patients, EACA 1 gram orally twice daily, no prophylactic platelet transfusions, 7/44): 16% | median bleeding score for the 19 minor bleeding events [1, 3]: 1 (1-2) | median score for the 10 bleeding episodes treated with transfusion [1, 3]: 2 (2-4) | patients with minor mucocutaneous bleeding that resolved spontaneously and did not require platelet transfusions ([1]; eleven of 44 patients): 25% | patients with grade 3 bleeding ([1]; hematochezia from a pre-existing rectal ulcer): 1 patient | bleeding episodes treated with platelet transfusions ([1]; in 7/44 patients while on EACA): 10 | episodes of minor mucocutaneous bleeding that resolved spontaneously ([1]; in eleven patients, epistaxis, bruises, oral, vaginal): 19 episodes | grade 2 mucocutaneous bleeds requiring transfusion ([1]; in the other 5 patients: hemorrhoid, epistaxis, oral, bladder and vaginal): 8 | grade 3-4 bleedings ([1]; in the setting of a trauma and from a pre-existing condition): Two | major spontaneous bleeds ([1]; median platelet counts 8×10^9/L, no prophylactic platelet transfusions, median 47 days, up to 209 days): no major spontaneous bleeds were observed | platelet refractory patients with bleeding episodes ([1]; of the 10 platelet refractory patients, mucocutaneous (3 grade 1, 5 grade 2 and 1 grade 3)): 4 | patients who discontinued EACA due to the onset of hematuria ([1]; one of 44 patients): 2% | overall safety [1, 4]: safe | risk of major spontaneous bleeding [1, 4]: low risk of major spontaneous bleeding | patient-reported effect on petechiae and subcutaneous bleeds ([1]; shortly after initiation of EACA): rapid disappearance of petechiae and resolution of subcutaneous bleeds | median platelet transfusions in transfused patients ([1]; summary statement, 16% of patients transfused): 4 units | median number of platelets transfusions received to treat bleeding episodes ([1]; the 7 transfused patients, median (range)): 4 (range, 1-8) | patients with grade 4 bleeding ([1]; traumatic intracranial hemorrhage secondary to motor vehicle accident): 1 patient | effect on transfusion requirements ([2]; patients with thrombocytopenic hemorrhage, Kalmadi et al., Cancer 2006): reduces transfusion requirements | effect on bleeding ([2]; severely thrombocytopenic patients with hematological malignancies, Antun et al., Cancer 2013): prevents bleeding
